Measurements reported in patent publication US4604380A, “C-23-substituted mycaminosyltylonolide compounds, pharmaceutical compositions and methods of use” (Eli Lilly and Company, priority 1985, dated 1986).
Converted amounts (≈) assume the structure as drawn. “And” between values parts separate entries of the source, which are not always exact repeats. Equal values may be shown once. Read-outs that look alike come from different tables or passages of the source.

Columns and labels:
[1] = system: Haemophilus influenzae 76; assay: MIC, standard agar-dilution assay (Table III); format: cell-based; details: agar dilution; Haemophilus influenzae 76, ampicillin-resistant strain; read-out: MIC
Experimental: (§1) The MIC's s in Table III were determined by standard agar-dilution assays. The MIC's in Table IV were obtained using a conventional broth-dilution microtiter test.

[2] = system: Haemophilus influenzae C.L.; assay: MIC, standard agar-dilution assay (Table III); format: cell-based
Experimental: as §1

[3] = system: Staphylococcus aureus S13E; assay: MIC, standard agar-dilution assay (Table III); format: cell-based
Experimental: as §1

[4] = system: Staphylococcus aureus V41; assay: MIC, standard agar-dilution assay (Table III); format: cell-based; details: Staphylococcus aureus V41, penicillin-resistant strain
Experimental: as §1

[5] = system: Staphylococcus aureus X1.1; assay: MIC, standard agar-dilution assay (Table III); format: cell-based
Experimental: as §1

[6] = system: Staphylococcus aureus X400; assay: MIC, standard agar-dilution assay (Table III); format: cell-based; details: Staphylococcus aureus, X400
Experimental: as §1

[7] = system: Staphylococcus epidermidis 222; assay: MIC, standard agar-dilution assay (Table III); format: cell-based
Experimental: as §1

[8] = system: Staphylococcus epidermidis EPI1; assay: MIC, standard agar-dilution assay (Table III); format: cell-based
Experimental: as §1

[9] = system: Streptococcus Group D 2041; assay: MIC, standard agar-dilution assay (Table III); format: cell-based; details: GROUPD2041
Experimental: as §1

[10] = system: Streptococcus Group D X66; assay: MIC, standard agar-dilution assay (Table III); format: cell-based
Experimental: as §1

[11] = system: Streptococcus pyogenes C203; assay: MIC, standard agar-dilution assay (Table III); format: cell-based
Experimental: as §1

[12] = system: Streptococcus pneumoniae Park I; assay: microbe, parasite or virus in culture; format: cell-based
Experimental: as §1

Staphylococcus aureus = assay: ED50 vs. Staphylococcus aureus experimental infection in mice (Table V); format: in vivo; details: two doses, dose protecting 50% of animals
Experimental: (§2) Certain formula 1a compounds have also shown in vivo antimicrobial activity against experimental bacterial infections. When two doses of test compound were administered to mice in experimental infections, the activity observed was measured as an ED50 value [effective dose in mg/kg to protect 50% of the test animals: see Warren Wick, et al., J. Bacteriol. 81, 233-235 (1961)].

Streptococcus pyogenes = assay: ED50 vs Streptococcus pyogenes experimental infection in mice (Table VI); format: in vivo; details: two doses, several values = results from more than one test
Experimental: as §2

[13] = system: Streptococcous pneumoniae; assay: ED50 vs. Streptococcous pneumoniae experimental infection in mice (Table VII); format: in vivo; details: two doses; for ED50: Mus musculus
Experimental: as §2

[14] = agar dilution, Haemophilus influenzae C.L., ampicillin-sensitive strain, read-out: MIC
[15] = agar dilution, Staphylococcus epidermidis 222, read-out: MIC
[16] = Staphylococcus epidermidis, EPI1
[17] = agar dilution, Streptococcus pneumoniae Park I, read-out: MIC
[18] = sc, subcutaneous, read-out: ED50 Subcutaneous
[19] = agar dilution, Streptococcus Group D 2041, read-out: MIC
[20] = agar dilution, Streptococcus Group D X66, read-out: MIC
[21] = agar dilution, Streptococcus pyogenes C203, read-out: MIC
[22] = Streptococcus pneumoniae, read-out: MIC

| Structure (SMILES) | MIC [1] | MIC [2, 14] | MIC [3] | MIC [4] | MIC [5] | MIC [6] | MIC [7, 15] | MIC [8, 16] | MIC [9] | MIC [10] | MIC ([11]; Streptococcus pyogenes, C203) | MIC [12, 17] | ED50 (Staphylococcus aureus; po, read-out: ED50 Oral) | ED50 (Streptococcus pyogenes; po, read-out: ED50 Oral) | ED50 (Streptococcus pyogenes; [18]) | ED50 ([13]; po, read-out: ED50 Oral) | MIC [10, 20] | ED50 (Staphylococcus aureus; [18]) | ED50 [13, 18] | MIC [11, 21] | other results |
| --- | --- | --- | --- | --- | --- | --- | --- | --- | --- | --- | --- | --- | --- | --- | --- | --- | --- | --- | --- | --- | --- |
| CCC1OC(=O)CC(O)C(C)C(OC2OC(C)C(O)C(N(C)C)C2O)C(CC=O)CC(C)C(=O)C=CC(C)=CC1CN1CCC2CCCCC21 (centres unmarked) [Compound 35, 23-deoxy-23-(octahydro-1H--indol-1-yl)-OMT] | 1 µg/mL (≈ 1.42 µM) | 0.5 µg/mL (≈ 0.709 µM) | 0.25 µg/mL (≈ 0.355 µM) | 0.25 µg/mL (≈ 0.355 µM) | 0.25 µg/mL (≈ 0.355 µM) | 0.25 µg/mL (≈ 0.355 µM) | 0.125 µg/mL (≈ 0.177 µM) | 0.25 µg/mL (≈ 0.355 µM) | 0.25 µg/mL (≈ 0.355 µM) | 0.25 µg/mL (≈ 0.355 µM) | 0.5 µg/mL (≈ 0.709 µM) | 1 µg/mL (≈ 1.42 µM) | 100 mg/kg | 87.1 mg/kg | 1.86 mg/kg | 71 mg/kg | – | – | – | – | ED50 Subcutaneous (Streptococcus pyogenes; subcutaneous): 2.5 mg/kg × 2 |
| CCC1OC(=O)CC(O)C(C)C(OC2OC(C)C(O)C(N(C)C)C2O)C(CC=O)CC(C)C(=O)C=CC(C)=CC1CN1CC2CC=CCC2C1 (centres unmarked) [Compound 37] | 1 µg/mL (≈ 1.42 µM) | 0.5 µg/mL (≈ 0.711 µM) | 0.25 µg/mL (≈ 0.356 µM) | 0.25 µg/mL (≈ 0.356 µM) | 0.25 µg/mL (≈ 0.356 µM) | 0.25 µg/mL (≈ 0.356 µM) | – | 0.25 µg/mL (≈ 0.356 µM) | – | – | 0.06 µg/mL (≈ 0.0854 µM) | 0.125 µg/mL (≈ 0.178 µM) | 85 mg/kg | 87 mg/kg | – | 87 mg/kg | 0.125 µg/mL (≈ 0.178 µM) | 2.74 mg/kg | 1.66 mg/kg | – | MIC ([7]; Staphylococcus epidermidis, 222): 0.06 µg/mL (≈ 0.0854 µM); MIC [9, 19]: 0.25 µg/mL (≈ 0.356 µM); ED50 Subcutaneous (Staphylococcus aureus; subcutaneous): 3.92 mg/kg × 2 and 3.42 mg/kg × 2; ED50 Subcutaneous ([13]; subcutaneous): 2.97 mg/kg × 2 |
| CCC1OC(=O)CC(O)C(C)C(OC2OC(C)C(O)C(N(C)C)C2O)C(CC=O)CC(C)C(=O)C=CC(C)=CC1CN1CCc2ccccc2C1 (centres unmarked) [Compound 29, 23-deoxy-23-(3,4-dihydro-1H--isoquinolin-2-yl)-OMT] | 1 µg/mL (≈ 1.4 µM) | 1 µg/mL (≈ 1.4 µM) | 0.25 µg/mL (≈ 0.351 µM) | 0.25 µg/mL (≈ 0.351 µM) | 0.25 µg/mL (≈ 0.351 µM) | 0.25 µg/mL (≈ 0.351 µM) | 0.125 µg/mL (≈ 0.175 µM) | – | – | – | – | – | – | – | > 10 mg/kg | – | 0.125 µg/mL (≈ 0.175 µM) | > 10 mg/kg | > 10 mg/kg | 0.06 µg/mL (≈ 0.0842 µM) | MIC ([8]; agar dilution, Staphylococcus epidermidis EPI1, read-out: MIC): 0.125 µg/mL (≈ 0.175 µM); MIC [9, 19]: 0.25 µg/mL (≈ 0.351 µM); MIC ([12]; Streptococcus pneumoniae): 0.03 µg/mL (≈ 0.0421 µM) |
| CCC1OC(=O)CC(O)C(C)C(OC2OC(C)C(O)C(N(C)C)C2O)C(CC=O)CC(C)C(=O)C=CC(C)=CC1CN1CCC2CCCCC2C1 (centres unmarked) [Compound 33, 23-deoxy-23-(octahydro-1H--isoquinolin-2-yl)-OMT] | 0.25 µg/mL (≈ 0.348 µM) | – | 0.5 µg/mL (≈ 0.695 µM) | 0.5 µg/mL (≈ 0.695 µM) | 0.5 µg/mL (≈ 0.695 µM) | 0.25 µg/mL (≈ 0.348 µM) | 0.125 µg/mL (≈ 0.174 µM) | 0.5 µg/mL (≈ 0.695 µM) | 0.5 µg/mL (≈ 0.695 µM) | 0.5 µg/mL (≈ 0.695 µM) | 0.03 µg/mL (≈ 0.0417 µM) | – | – | – | > 10 mg/kg | – | – | 7.56 mg/kg | 10 mg/kg | – | MIC ([2]; Haemophilus influenzae): 0.5 µg/mL (≈ 0.695 µM); MIC [12, 22]: 0.06 µg/mL (≈ 0.0835 µM) |
| CCC1OC(=O)CC(O)C(C)C(OC2OC(C)C(O)C(N(C)C)C2O)C(CC=O)CC(C)C(=O)C=CC(C)=CC1CN1CCC2(CCCCC2)CC1 (centres unmarked) [Compound 27, 23-deoxy-23-(3-azaspiro[5.5]undecan-3-yl)-OMT] | 2 µg/mL (≈ 2.73 µM) | 2 µg/mL (≈ 2.73 µM) | 0.5 µg/mL (≈ 0.682 µM) | 0.5 µg/mL (≈ 0.682 µM) | 0.5 µg/mL (≈ 0.682 µM) | 0.5 µg/mL (≈ 0.682 µM) | 0.25 µg/mL (≈ 0.341 µM) | 0.5 µg/mL (≈ 0.682 µM) | 0.5 µg/mL (≈ 0.682 µM) | – | – | – | – | – | > 10 mg/kg | – | 0.25 µg/mL (≈ 0.341 µM) | 3.08 mg/kg | > 10 mg/kg | 0.25 µg/mL (≈ 0.341 µM) | MIC [12, 22]: 0.06 µg/mL (≈ 0.0819 µM) |
| CCC1OC(=O)CC(O)C(C)C(OC2OC(C)C(O)C(N(C)C)C2O)C(CC=O)CC(C)C(=O)C=CC(C)=CC1CN(Cc1ccccc1)C1CC2CCC1C2 (centres unmarked) [Compound 6, 23-deoxy-23-[N--benzyl-N--(bicyclo[2.2.1]hept-2-yl)amino]-OMT] | 0.5 µg/mL (≈ 0.64 µM) | – | 0.25 µg/mL (≈ 0.32 µM) | 0.25 µg/mL (≈ 0.32 µM) | 0.25 µg/mL (≈ 0.32 µM) | 0.25 µg/mL (≈ 0.32 µM) | 0.06 µg/mL (≈ 0.0768 µM) | 0.25 µg/mL (≈ 0.32 µM) | 0.25 µg/mL (≈ 0.32 µM) | 0.25 µg/mL (≈ 0.32 µM) | – | 0.125 µg/mL (≈ 0.16 µM) | – | > 100 mg/kg | > 10 mg/kg | – | – | – | – | 0.06 µg/mL (≈ 0.0768 µM) | MIC ([2]; Haemophilus influenzae): 1 µg/mL (≈ 1.28 µM) |
